# According to ChEMBL document CHEMBL2074039 (Biochem Pharmacol, 1993):
# Key:
# [1] = biological target: T1, ATP-dependent translocase ABCB1 (Homo sapiens, UniProt P08183); experiment: TP_TRANSPORTER: inhibition of Azidopine photoaffinity labelling (Azidopine: 0.2 uM, trans-flupenthioxol: 1 uM) in membranes from KB/V20C cells; format: functional, cell membranes, Membrane
# [2] = biological target: T1, ATP-dependent translocase ABCB1; experiment: TP_TRANSPORTER: increase in Doxorubicin intracellular accumulation (Doxorubicin: 0-20 uM, trans-flupenthixol: 5 uM) in MCF-7/ADR cells; format: functional, cell-based; details: nci/adr-res
# T1 sequence (P08183 whole entry): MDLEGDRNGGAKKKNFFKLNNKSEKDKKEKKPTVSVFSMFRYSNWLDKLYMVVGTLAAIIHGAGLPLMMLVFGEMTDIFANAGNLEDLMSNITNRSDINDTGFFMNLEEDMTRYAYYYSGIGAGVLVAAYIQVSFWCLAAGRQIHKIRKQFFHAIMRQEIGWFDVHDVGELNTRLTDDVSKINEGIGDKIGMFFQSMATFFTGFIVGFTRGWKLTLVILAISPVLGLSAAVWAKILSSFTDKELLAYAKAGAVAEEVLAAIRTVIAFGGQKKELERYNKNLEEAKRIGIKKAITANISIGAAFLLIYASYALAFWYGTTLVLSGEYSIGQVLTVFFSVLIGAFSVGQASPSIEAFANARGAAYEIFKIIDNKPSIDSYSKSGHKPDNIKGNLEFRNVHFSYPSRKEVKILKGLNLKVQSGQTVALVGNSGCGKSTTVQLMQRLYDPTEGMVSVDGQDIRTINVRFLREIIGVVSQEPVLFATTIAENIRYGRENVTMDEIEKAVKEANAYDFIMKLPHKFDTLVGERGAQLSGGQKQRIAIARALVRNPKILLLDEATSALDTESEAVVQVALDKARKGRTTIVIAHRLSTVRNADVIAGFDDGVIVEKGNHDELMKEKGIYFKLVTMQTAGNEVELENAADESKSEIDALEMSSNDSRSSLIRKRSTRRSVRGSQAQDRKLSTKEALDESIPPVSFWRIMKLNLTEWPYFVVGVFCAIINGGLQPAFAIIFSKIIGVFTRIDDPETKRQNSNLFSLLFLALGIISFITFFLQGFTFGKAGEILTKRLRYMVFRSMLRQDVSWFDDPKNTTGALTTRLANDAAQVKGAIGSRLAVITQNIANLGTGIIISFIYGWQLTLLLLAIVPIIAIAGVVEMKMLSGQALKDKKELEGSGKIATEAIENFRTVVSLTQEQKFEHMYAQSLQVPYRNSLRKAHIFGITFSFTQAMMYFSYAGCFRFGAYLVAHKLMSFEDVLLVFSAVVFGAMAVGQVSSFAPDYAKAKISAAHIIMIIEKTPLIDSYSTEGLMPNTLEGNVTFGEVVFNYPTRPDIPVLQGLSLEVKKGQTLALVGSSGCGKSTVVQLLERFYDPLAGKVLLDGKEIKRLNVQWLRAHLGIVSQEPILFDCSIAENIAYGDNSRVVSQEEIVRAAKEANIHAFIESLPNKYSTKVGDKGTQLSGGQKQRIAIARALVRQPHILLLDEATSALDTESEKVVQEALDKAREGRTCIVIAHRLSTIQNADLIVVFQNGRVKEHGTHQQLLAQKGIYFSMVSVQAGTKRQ
smiles,measurement,setting,value
OCCN1CCN(CC/C=C2\c3ccccc3Sc3ccc(C(F)(F)F)cc32)CC1 [E-FLUPENTIXOL],Activity,[1],inhibitor [+]
same,Activity,[2],inhibitor [2 to 3-fold]
